From patent US7273884B2, “Method of treating tremors” (Eisai, Inc., priority 2002, dated 2007)
Read-outs that look alike come from different tables or passages of the source.

What was measured:
[1] = Harmaline-induced tremor in rats (tremor monitoring cage, 8-12 Hz vs 0-15 Hz motion); type: in vivo, Sprague-Dawley rats
Method: Six female Sprague-Dawley rats were treated with i.p. saline and placed in a tremor monitoring cage for 30 minutes of baseline recording. They then received 10 mg/kg harmaline i.p. to induce tremor. Recording of the harmaline-induced tremor began 15 minutes after the harmaline injection and continued for up to 2½ hours.
A transducer connected to the cage floor recorded motion, which was processed by Fourier transform and spectral analysis. Motion at 8-12 Hz (the range in which the tremor occurs) was compared to the full spectrum of motion recorded (0-15 Hz).
To analyze the reduction of tremor caused by treatment agents, a Convuls-1 pressure sensitive transducer system is used. Convuls-1 is designed to objectively quantify convulsive or tremorous activity in small laboratory animals. An unrestrained animal is placed within a chamber that resides upon a sensing platform. […] The static force exerted by the weight of the platform and animal is not recorded. […] Output power is recorded digitally and analyzed for change of frequency and power using the Dataware A/D converted and software.
The data is analyzed in one minute bins. For each bin, the total power of 0-15 Hz and the total power at 8-12 Hz is calculated. The data is then converted into Excel and the ratio of 8-12 Hz/0-15 Hz power is calculated. […]

[2] = delivered intraperitoneally; severity dose dependent; cited from earlier work
[3] = test system: NMDA receptor; conditions: noncompetitive NMDA channel blocker; cited from earlier work
[4] = rats; cited from earlier work
[5] = kindled rat; cited from earlier work
[6] = cats, electrical stimulation of the visual cortex; cited from earlier work
[7] = test system: dopaminergic and serotonergic neurotransmission; conditions: in vivo microdialysis; cited from earlier work
[8] = one patient; treatment with zonisamide, clonazepam and valpolate; cited from earlier work
[9] = test system: rat hippocampal slices; conditions: 10-30 μg/mL; cited from earlier work
[10] = test system: T-type Ca2+ currents; conditions: in vitro; cited from earlier work
[11] = 50-200 mg/day in addition to anti-Parkinson Disease drug; cited from earlier work
[12] = test system: GABA/benzodiazepine receptor ionophore complex; conditions: in vitro; does not produce changes in chloride flux; cited from earlier work
[13] = cats, cortical freezing; cited from earlier work
[14] = Zonisamide treatment of tremor patients at an outpatient neurology clinic; type: in vivo, human
Method: Zonisamide was used in treatment of patients at an outpatient neurology clinic, which provided the following results. […] For intractable essential tremor, 10 patients (age range: 46 to 82) were identified who were either intolerant to, or failed on, primidone or propranolol therapy. The dosage of zonisamide to these patients was 100 mg to a maximum of 200 mg once daily. The study dose was continued for at least 12 weeks unless discontinued earlier due to side effects.

[15] = test system: cultured mouse spinal cord neurons; conditions: 10-30 μg/mL; cited from earlier work
[16] = test system: voltage-gated sodium channels; conditions: in vitro; cited from earlier work
[17] = patients; cited from earlier work
[18] = rats, cortical tungstic acid gel; cited from earlier work
[19] = general clinical practice, first line therapy; cited from earlier work
[20] = patients at outpatient neurology clinic

COc1ccc2c3c([nH]c2c1)C(C)=NCC3 [harmaline]
stability of tremor-inducing effect ([1]; 10 mg/kg harmaline i.p., female Sprague-Dawley rats): stable for over two hours | ratio of 8-12 Hz/0-15 Hz power ([1]; harmaline-treated rats (control rats 15-30%)): 60-80% | effective dose range for tremor induction [2]: 10 to 50 mg/kg

C[C@]12N[C@H](Cc3ccccc31)c1ccccc12 [MK-801]
tremorogenic actions of harmaline [3]: could block the tremorogenic actions of harmaline

NS(=O)(=O)Cc1noc2ccccc12 [zonisamide, 1,2-benzisoxazole-3-methanesulfonamide]
oral dose effective in anticonvulsant models [4]: 20 mg/kg | threshold for generalized seizures [5]: increase in threshold for generalized seizures | duration of cortical focal seizures [6]: reduction in the duration of cortical focal seizures | dopaminergic and serotonergic neurotransmission [7]: facilitates both dopaminergic and serotonergic neurotransmission | symptoms of cortical myoclonic tremor [8]: improved | neuronal or glial uptake of [3H]-GABA [9]: without affecting | effect on voltage-dependent, transient inward calcium currents [10]: reduces voltage-dependent, transient inward calcium currents | symptoms of patients [11]: showed lessening of symptoms | binding to GABA/benzodiazepine receptor ionophore complex [12]: binds to the GABA/benzodiazepine receptor ionophore complex in an allosteric fashion | interictal spikes and secondarily generalized seizures [13]: suppressed both interictal spikes and the secondarily generalized seizures | patients responding ([14]; Parkinsonian tremor): two out of four responded | quality of life ([14]; intractable essential tremor responders, 100 mg to 200 mg once daily): reported a better quality of life | patients responding by reduction in tremor ([14]; intractable essential tremor, 10 patients intolerant to or failed on primidone or propranolol, 100 mg to 200 mg once daily, at least 12 weeks): four patients responded by reduction in tremor of greater than 50% | patients responding ([14]; mixed tremor (non-essential, secondary to trauma or multiple sclerosis)): two out of two patients responded | patients responding ([14]; multi-infarct-related (2 or more minor strokes) tremor): one out of two patients responded | adverse reactions experienced in treatment [14, 20]: GI upset, somnolence and skin rash | kidney stones and anhydrosis (lack of sweating) [14, 20]: not encountered | postsynaptic GABA or glutamate responses [15]: without affecting | synaptically-driven electrical activity [15]: suppresses synaptically-driven electrical activity | effect on voltage-gated sodium channels [16]: blocks voltage-gated sodium channels | tremor developed after administration [17]: two patients developed resting and postural hand tremor | interictal spikes and secondarily generalized seizures [18]: suppressed both interictal spikes and the secondarily generalized seizures

CC(C)NCC(O)COc1cccc2ccccc12 (stereo not drawn) [propranolol]
efficacy in ET [19]: proven efficacy in ET
